In publication PMC11857211, “Bioprospecting Bioactive Peptides in Halobatrachus didactylus Body Mucus: From In Silico Insights to Essential In Vitro Validation” (Marine Drugs, 2025):
Marks after values point to notes of the source that are not given here.

Columns and labels:
E. coli biofilm = assay: Antibiofilm activity (crystal violet); assay type: cell-based, Escherichia coli; conditions: 24 h incubation, HdKTLR 262, HdKNL 262, HdPPP 130, HdVLPN 204, HdLPN 227 µg/mL, OD 595 nm
Experimental: (§1) The antibiofilm activity was determined according to the following method, with some modifications. Taking the microplate from 24 h inhibition growth curves, the contents of the plate were discarded, and each well was carefully washed three times with distilled water to remove non-adherent cells. The adhered cells were fixed with 150 µL of methanol for 10 min. Then, the methanol was discarded, the plates were left to dry, and then, the fixed biofilm was stained with […] of crystal violet (CV) for 10 min. Excess stain was rinsed out by placing the plate under slow-running tap water. Once the plates were air-dried, the dye attached to the adherent cells was resolubilized by adding 150 µL of 33% (v/v) glacial acetic acid and agitated for 15 min. The optical density of the solution obtained was measured at 595 nm using a multidetection plate reader (Synergy H1, Winooski, VT, USA). All tests were carried out in duplicate, with a positive control using an inoculated culture in MH broth and a negative control using MH broth only. The results are presented as the percentage of biofilm formation, calculated according to the following formula, where the OD of the sample is the measured OD of the inoculated medium mixed with the peptides, and the OD of the positive control is the OD measured for the positive control.% Biofilm formation = (ODsample/ODpositive control) × 100(1)

[1] = tested on: Escherichia coli ATCC 25922; assay: Growth inhibition curves; assay type: cell-based; conditions: HdKTLR 262, HdKNL 262, HdPPP 130 (5% DMSO), HdVLPN 204, HdLPN 227 µg/mL; MH broth, OD 600 nm hourly, 24 h, 37 °C
Experimental: (§2) The antimicrobial activity of the mucus samples was evaluated following the method by against the following pathogenic bacteria: Gram-negative Escherichia coli ATCC 25922, Salmonella enterica serovar Enteritidis ATCC 13076, and Pseudomonas aeruginosa ATCC 27853 and Gram-positive Staphylococcus aureus ATCC 6538. The mucus samples were combined with a 1/10 ratio of inoculum containing 1% (v/v) of bacteria cultured for 24 h in MH broth. For the positive control, deionized water was used instead of mucus samples with a 1% inoculum, while deionized water with MH served as the negative control. A control using chloramphenicol was made at a concentration of 16 µg/mL for E. coli, S. enterica, and P. aeruginosa and 100 µg/mL for S. aureus. The mixture was then transferred to a 96-well microplate (Sarstedt, Germany), and the optical density (OD) at 600 nm was measured every hour for a 24 h period at 37 °C using a microplate reader (Multiskan GO, Thermo Scientific, Finland). An increase in OD indicated bacterial growth.

[2] = tested on: Staphylococcus aureus ATCC 6538; assay: Growth inhibition curves; assay type: cell-based; conditions: HdKTLR 262, HdKNL 262, HdPPP 130 (5% DMSO), HdVLPN 204, HdLPN 227 µg/mL; MH broth, OD 600 nm hourly, 24 h, 37 °C
Experimental: as §2

[3] = tested on: Pseudomonas aeruginosa ATCC 27853; assay: Growth inhibition curves; assay type: cell-based; conditions: HdKTLR 262, HdKNL 262, HdPPP 130 (5% DMSO), HdVLPN 204, HdLPN 227 µg/mL; MH broth, OD 600 nm hourly, 24 h, 37 °C
Experimental: as §2

[4] = tested on: Salmonella enterica serovar Enteritidis ATCC 13076; assay: Growth inhibition curves; assay type: cell-based; conditions: HdKTLR 262, HdKNL 262, HdPPP 130 (5% DMSO), HdVLPN 204, HdLPN 227 µg/mL; MH broth, OD 600 nm hourly, 24 h, 37 °C
Experimental: as §2

Bifidobacterium species = assay: Probiotic growth curves; assay type: cell-based; conditions: B. longum BG3, B. animalis Bo, BB-12, BLC, B. breve; HdKTLR 262, HdKNL 262, HdVLPN 204, HdLPN 227 µg/mL; MRS broth, 24 h, 37 °C, OD 650 nm
Experimental: (§3) The effect of the peptides on probiotics was evaluated using the following probiotic Lactobacillus and Bifidobacterium species: L. acidophilus Ki (LAS), L. acidophilus La5, L. casei L26, L. plantarum 299V, L. rhamnosus RII, B. longum BG3 B. animalis spp. lactis BB12, B. animalis BLC, and B. animalis Bo. All the assays were performed using MRS broth supplemented with 0.5 g/L of L-cysteine. The peptides were combined with a 1/10 ratio of inoculum, containing 2% (v/v) of the probiotic and cultured for […] in MRS broth. For the positive control, deionized water was used instead of the peptides, with a 2% inoculum, while deionized water with MRS served as the negative control. Peptide wells with Bifidobacterium were sealed with paraffin to assure anaerobiosis conditions. The bacterial growth was monitored at 650 nm for 24 h at 37 °C in a microplate reader (Multiskan GO, Thermo Scientific, Finland), and the optical density (OD) was measured hourly. Growth curves were created by transforming the absorbance values in natural logarithms ln (Abs).

Lactobacillus species = assay: Probiotic growth curves; assay type: cell-based; conditions: L. acidophilus Ki, La5, L. plantarum 299V, L. casei, L. rhamnosus RII; HdKTLR 262, HdKNL 262, HdVLPN 204, HdLPN 227 µg/mL; MRS broth, 24 h, 37 °C, OD 650 nm
Experimental: as §3

[5] = ABTS radical scavenging assay; conditions: for Effect of pH and ionic strength on ABTS antioxidant activity: ABTS radical solution in HPSEC buffers, 344 and 700 mM, pH 3.0, 5.0, 7.0; for ABTS radical scavenging value: SD
Experimental: ABTS radical activity is based on an antioxidant’s capacity to scavenge the ABTS’s oxidized state. For this, ABTS radical scavenging activity was performed in a 96-well microplate, following the method described by. The absorbance was measured with a multidetection plate reader (Synergy H1, Winooski, VT, USA). For each sample, the standard and control analyses were duplicated. All measurements were performed in duplicate. The results are expressed in µmol of Trolox equivalents/µmol of peptide. To test the antioxidant activity under different pH and ionic strength conditions, the ABTS radical solution was prepared using the same buffers employed in the HPSEC analysis.

S. enterica biofilm = assay: Antibiofilm activity (crystal violet); assay type: cell-based, Salmonella enterica; conditions: 24 h incubation, HdKTLR 262, HdKNL 262, HdPPP 130, HdVLPN 204, HdLPN 227 µg/mL, OD 595 nm
Experimental: as §1

ORAC assay = conditions: fluorescence monitored 80 min, means (n ≥ 3) ± SD, nd: not detected
Experimental: The ORAC assay followed the protocol outlined by Coscueta et al.. […] Fluorescence was monitored for 80 min at 1 min intervals. Each sample, standard, blank, or control, analysis was duplicated. The final ORAC values were expressed as µmol TE/µmol of peptide for the peptides and µmol TE /mg of protein for the digestion retentate and permeate contents.

[6] = pH 3 and 344 mM ionic strength, means (n ≥ 3) ± SD
[7] = pH 7.0 and 700 mM ionic strength, means (n ≥ 3) ± SD

In the case of DPPNPKNL [HdKNL], the “Biofilm formation versus control” value (E. coli biofilm) is reported as “no significant differences”, the “Antimicrobial activity (growth inhibition curve)” value [1] is reported as “did not demonstrate antimicrobial potential” and the “Antimicrobial activity (growth inhibition curve)” value [2] is reported as “did not demonstrate antimicrobial potential”. The “Antimicrobial activity (growth inhibition curve)” value [3] was “did not demonstrate antimicrobial potential”, the “Antimicrobial activity (growth inhibition curve)” value [4] was “did not demonstrate antimicrobial potential” and the “Effect on probiotic growth” value (Bifidobacterium species) was “did not inhibit the growth”. The “Effect on probiotic growth” value (Lactobacillus species) was “did not inhibit the growth”, the “Effect of pH and ionic strength on ABTS antioxidant activity” value (“Effect of pH and ionic strength” for short) [5] was “remained unaffected by a decrease in pH” and the ABTS ([5]; peptide in H2O (HdPPP in DMSO), means (n ≥ 3) ± SD, nd: not detected) was “no antioxidant activity was observed”. For the same sequence, the “Biofilm formation versus control” value (S. enterica biofilm) was “no significant differences” and the ORAC (ORAC assay; SD) was 0.048 ± 0.002 ^a µmol TE/µmol Peptide.
In the case of EDNSELGQETPTLR [HdKTLR], the “Biofilm formation versus control” value (E. coli biofilm) is reported as “no significant differences”, the “Antimicrobial activity (growth inhibition curve)” value [1] is reported as “did not demonstrate antimicrobial potential” and the “Antimicrobial activity (growth inhibition curve)” value [2] is reported as “did not demonstrate antimicrobial potential”. The “Antimicrobial activity (growth inhibition curve)” value [3] was “did not demonstrate antimicrobial potential”, the “Antimicrobial activity (growth inhibition curve)” value [4] was “did not demonstrate antimicrobial potential” and the “Effect on probiotic growth” value (Bifidobacterium species) was “did not inhibit the growth”. The “Effect on probiotic growth” value (Lactobacillus species) was “did not inhibit the growth”, the “Effect of pH and ionic strength” value [5] was “no observable antioxidant activity” and the “Biofilm formation versus control” value (S. enterica biofilm) was “no significant differences”.
For PFPGPLPN [HdLPN], the “Biofilm formation versus control” value (E. coli biofilm) was “no significant differences”, the “Antimicrobial activity (growth inhibition curve)” value [1] was “did not demonstrate antimicrobial potential” and the “Antimicrobial activity (growth inhibition curve)” value [2] was “did not demonstrate antimicrobial potential”. For the same sequence, the “Antimicrobial activity (growth inhibition curve)” value [3] was “did not demonstrate antimicrobial potential”, the “Antimicrobial activity (growth inhibition curve)” value [4] was “did not demonstrate antimicrobial potential” and the “Effect on probiotic growth” value (Bifidobacterium species) was “did not inhibit the growth”. For the same sequence, the “Effect on probiotic growth” value (Lactobacillus species) was “did not inhibit the growth”, the “Effect of pH and ionic strength” value [5] was “significant decrease in antioxidant activity” and the “ABTS radical scavenging value” [5, 6] was 0.012 ± 0.004 µmol TE/µmol of peptide. The “ABTS radical scavenging value” [5, 7] was 0.283 ± 0.177 µmol TE/µmol of peptide, the “Biofilm formation versus control” value (S. enterica biofilm) was “no significant differences” and the ORAC (ORAC assay) was 0.195 µmol TE/µmol Peptide. For the same sequence, the ORAC (ORAC assay; SD) was 0.195 ± 0.030 ^b,c µmol TE/µmol Peptide.
For VYPFPGPLPN [HdVLPN], the “Biofilm formation versus control” value (E. coli biofilm) was “no significant differences”, the “Antimicrobial activity (growth inhibition curve)” value [1] was “did not demonstrate antimicrobial potential” and the “Antimicrobial activity (growth inhibition curve)” value [2] was “did not demonstrate antimicrobial potential”. For the same sequence, the “Antimicrobial activity (growth inhibition curve)” value [3] was “did not demonstrate antimicrobial potential”, the “Antimicrobial activity (growth inhibition curve)” value [4] was “did not demonstrate antimicrobial potential” and the “Effect on probiotic growth” value (Bifidobacterium species) was “did not inhibit the growth”. For the same sequence, the “Effect on probiotic growth” value (Lactobacillus species) was “did not inhibit the growth”, the “Effect of pH and ionic strength” value [5] was “significant decrease in antioxidant activity” and the “ABTS radical scavenging value” [5, 6] was 0.163 ± 0.002 µmol TE/µmol of peptide. For the same sequence, the “ABTS radical scavenging value” [5, 7] was 0.827 ± 0.021 µmol TE/µmol of peptide, the “Biofilm formation versus control” value (S. enterica biofilm) was “no significant differences” and the ORAC (ORAC assay) was 1.560 µmol TE/µmol Peptide. For the same sequence, the ORAC (ORAC assay; SD) was 1.560 ± 0.110 ^c µmol TE/µmol Peptide.
